Assay results reported in PubChem BioAssay AID2415 (Johns Hopkins Ion Channel Center, 2010).

Experiments:
Assay in all cases: KCNQ1-5 subtype selectivity of KCNQ2 potentiator, late-stage follow-up, selectivity assay for KCNQ2 potentiator project, cell-based, manual patch clamp, mode of action (AID 2415)
[1] = target: Potassium voltage-gated channel subfamily KQT member 3 (Rattus norvegicus) (UniProt O88944); settings: KCNQ channels in transfected CHO cells, manual whole-cell patch clamp current; measured here: KCNQ3 current ratio; at 10 µM; stronger effect = higher value
Chain of Potassium voltage-gated channel subfamily KQT member 3 (Rattus norvegicus) (O88944 whole entry, looked up): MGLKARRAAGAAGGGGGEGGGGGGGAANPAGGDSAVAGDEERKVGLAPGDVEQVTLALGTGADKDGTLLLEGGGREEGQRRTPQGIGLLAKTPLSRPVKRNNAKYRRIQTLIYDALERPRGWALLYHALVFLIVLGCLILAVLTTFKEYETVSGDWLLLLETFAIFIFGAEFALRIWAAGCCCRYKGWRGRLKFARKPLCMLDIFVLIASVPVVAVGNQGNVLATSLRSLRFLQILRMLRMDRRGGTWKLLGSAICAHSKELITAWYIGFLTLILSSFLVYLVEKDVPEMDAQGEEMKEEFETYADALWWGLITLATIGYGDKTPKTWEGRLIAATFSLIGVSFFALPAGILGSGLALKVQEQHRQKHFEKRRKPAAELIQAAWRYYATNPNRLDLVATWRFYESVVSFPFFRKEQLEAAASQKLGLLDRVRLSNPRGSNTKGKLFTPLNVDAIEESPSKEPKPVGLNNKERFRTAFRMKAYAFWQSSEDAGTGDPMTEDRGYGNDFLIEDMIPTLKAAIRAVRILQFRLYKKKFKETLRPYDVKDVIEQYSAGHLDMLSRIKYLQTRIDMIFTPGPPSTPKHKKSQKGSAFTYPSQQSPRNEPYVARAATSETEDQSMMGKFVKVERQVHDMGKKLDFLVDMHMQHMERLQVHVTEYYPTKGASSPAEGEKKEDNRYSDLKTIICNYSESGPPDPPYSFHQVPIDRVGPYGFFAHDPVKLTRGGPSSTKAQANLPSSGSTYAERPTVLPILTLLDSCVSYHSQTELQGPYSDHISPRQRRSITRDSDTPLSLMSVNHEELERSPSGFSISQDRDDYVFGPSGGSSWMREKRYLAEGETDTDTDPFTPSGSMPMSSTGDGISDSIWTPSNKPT

[2] = target: Potassium voltage-gated channel subfamily KQT member 1 (Homo sapiens) (UniProt P51787); settings: KCNQ channels in transfected CHO cells, manual whole-cell patch clamp current, at 10 µM
Chain of Potassium voltage-gated channel subfamily KQT member 1 (Homo sapiens) (P51787 whole entry, looked up): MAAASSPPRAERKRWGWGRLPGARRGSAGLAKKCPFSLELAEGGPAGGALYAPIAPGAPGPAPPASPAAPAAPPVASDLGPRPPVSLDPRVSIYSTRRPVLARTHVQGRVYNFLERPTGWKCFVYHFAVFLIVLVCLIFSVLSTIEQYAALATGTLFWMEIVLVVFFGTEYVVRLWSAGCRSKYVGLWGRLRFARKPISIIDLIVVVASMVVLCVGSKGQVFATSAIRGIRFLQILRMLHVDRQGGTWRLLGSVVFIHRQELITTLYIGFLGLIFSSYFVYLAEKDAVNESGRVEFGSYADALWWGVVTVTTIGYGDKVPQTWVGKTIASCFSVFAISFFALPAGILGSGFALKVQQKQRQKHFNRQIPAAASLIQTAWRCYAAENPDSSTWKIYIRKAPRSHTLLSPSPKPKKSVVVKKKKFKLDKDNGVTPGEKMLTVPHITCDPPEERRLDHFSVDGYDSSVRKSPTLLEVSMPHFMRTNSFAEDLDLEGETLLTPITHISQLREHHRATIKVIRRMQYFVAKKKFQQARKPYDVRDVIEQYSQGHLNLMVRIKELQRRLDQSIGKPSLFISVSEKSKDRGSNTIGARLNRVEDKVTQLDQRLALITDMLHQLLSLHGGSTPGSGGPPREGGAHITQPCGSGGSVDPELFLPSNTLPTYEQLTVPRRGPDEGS

[3] = target: Potassium voltage-gated channel subfamily KQT member 4 (Homo sapiens) (UniProt P56696); settings: KCNQ channels in transfected CHO cells, manual whole-cell patch clamp current; measured here: KCNQ4 current ratio; at 10 µM; stronger effect = higher value
Chain of Potassium voltage-gated channel subfamily KQT member 4 (Homo sapiens) (P56696 whole entry, looked up): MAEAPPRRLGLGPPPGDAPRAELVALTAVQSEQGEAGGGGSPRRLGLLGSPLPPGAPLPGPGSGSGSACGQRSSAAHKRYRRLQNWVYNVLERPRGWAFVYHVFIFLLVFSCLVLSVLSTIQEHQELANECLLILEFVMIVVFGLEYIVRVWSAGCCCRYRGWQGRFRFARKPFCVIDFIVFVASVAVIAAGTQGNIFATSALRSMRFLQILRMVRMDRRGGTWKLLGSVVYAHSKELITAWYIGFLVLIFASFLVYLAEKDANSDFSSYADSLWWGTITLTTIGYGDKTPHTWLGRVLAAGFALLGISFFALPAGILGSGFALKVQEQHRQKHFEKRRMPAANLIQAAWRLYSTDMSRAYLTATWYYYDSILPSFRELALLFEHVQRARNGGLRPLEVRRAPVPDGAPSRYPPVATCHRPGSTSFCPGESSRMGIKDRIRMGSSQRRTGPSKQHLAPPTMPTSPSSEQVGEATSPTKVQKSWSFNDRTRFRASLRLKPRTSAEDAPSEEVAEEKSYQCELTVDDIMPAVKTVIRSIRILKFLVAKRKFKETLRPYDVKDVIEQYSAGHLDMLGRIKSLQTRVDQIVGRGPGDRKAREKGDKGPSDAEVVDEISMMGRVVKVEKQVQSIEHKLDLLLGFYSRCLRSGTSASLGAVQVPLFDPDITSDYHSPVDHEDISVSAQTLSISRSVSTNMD

[4] = target: Potassium voltage-gated channel subfamily KQT member 5 (Homo sapiens) (UniProt Q9NR82); settings: KCNQ channels in transfected CHO cells, manual whole-cell patch clamp current; measured here: KCNQ5 current ratio; at 10 µM; stronger effect = higher value
Chain of Potassium voltage-gated channel subfamily KQT member 5 (Homo sapiens) (Q9NR82 whole entry, looked up): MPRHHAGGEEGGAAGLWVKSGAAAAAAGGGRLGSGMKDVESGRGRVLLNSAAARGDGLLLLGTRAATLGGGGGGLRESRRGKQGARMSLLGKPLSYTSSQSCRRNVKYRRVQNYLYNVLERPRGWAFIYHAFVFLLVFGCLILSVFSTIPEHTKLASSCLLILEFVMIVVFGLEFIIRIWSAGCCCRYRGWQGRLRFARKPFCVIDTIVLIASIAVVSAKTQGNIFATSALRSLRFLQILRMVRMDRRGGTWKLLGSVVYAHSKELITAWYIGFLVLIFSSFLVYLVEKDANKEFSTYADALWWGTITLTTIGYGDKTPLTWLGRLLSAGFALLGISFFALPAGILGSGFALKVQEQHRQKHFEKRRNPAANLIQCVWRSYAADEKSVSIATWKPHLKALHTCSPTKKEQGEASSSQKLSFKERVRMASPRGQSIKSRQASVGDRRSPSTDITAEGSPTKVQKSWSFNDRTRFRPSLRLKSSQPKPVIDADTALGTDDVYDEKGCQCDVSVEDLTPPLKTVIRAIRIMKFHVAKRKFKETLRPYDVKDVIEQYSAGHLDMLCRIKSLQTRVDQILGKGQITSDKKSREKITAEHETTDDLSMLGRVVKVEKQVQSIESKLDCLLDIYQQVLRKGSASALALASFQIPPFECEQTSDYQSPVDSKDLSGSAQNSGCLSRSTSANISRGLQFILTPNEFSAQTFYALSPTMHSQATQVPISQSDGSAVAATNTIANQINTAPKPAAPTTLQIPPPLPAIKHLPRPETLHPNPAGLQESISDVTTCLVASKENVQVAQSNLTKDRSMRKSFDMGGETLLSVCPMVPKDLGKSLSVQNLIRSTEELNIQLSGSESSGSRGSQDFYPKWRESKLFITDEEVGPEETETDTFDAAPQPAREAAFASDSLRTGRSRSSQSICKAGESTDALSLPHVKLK

[5] = target: Potassium voltage-gated channel subfamily KQT member 2 (Rattus norvegicus) (UniProt O88943); settings: KCNQ channels in transfected CHO cells, manual whole-cell patch clamp current; measured here: KCNQ2 current ratio; at 10 µM; stronger effect = higher value
Chain of Potassium voltage-gated channel subfamily KQT member 2 (Rattus norvegicus) (O88943 whole entry, looked up): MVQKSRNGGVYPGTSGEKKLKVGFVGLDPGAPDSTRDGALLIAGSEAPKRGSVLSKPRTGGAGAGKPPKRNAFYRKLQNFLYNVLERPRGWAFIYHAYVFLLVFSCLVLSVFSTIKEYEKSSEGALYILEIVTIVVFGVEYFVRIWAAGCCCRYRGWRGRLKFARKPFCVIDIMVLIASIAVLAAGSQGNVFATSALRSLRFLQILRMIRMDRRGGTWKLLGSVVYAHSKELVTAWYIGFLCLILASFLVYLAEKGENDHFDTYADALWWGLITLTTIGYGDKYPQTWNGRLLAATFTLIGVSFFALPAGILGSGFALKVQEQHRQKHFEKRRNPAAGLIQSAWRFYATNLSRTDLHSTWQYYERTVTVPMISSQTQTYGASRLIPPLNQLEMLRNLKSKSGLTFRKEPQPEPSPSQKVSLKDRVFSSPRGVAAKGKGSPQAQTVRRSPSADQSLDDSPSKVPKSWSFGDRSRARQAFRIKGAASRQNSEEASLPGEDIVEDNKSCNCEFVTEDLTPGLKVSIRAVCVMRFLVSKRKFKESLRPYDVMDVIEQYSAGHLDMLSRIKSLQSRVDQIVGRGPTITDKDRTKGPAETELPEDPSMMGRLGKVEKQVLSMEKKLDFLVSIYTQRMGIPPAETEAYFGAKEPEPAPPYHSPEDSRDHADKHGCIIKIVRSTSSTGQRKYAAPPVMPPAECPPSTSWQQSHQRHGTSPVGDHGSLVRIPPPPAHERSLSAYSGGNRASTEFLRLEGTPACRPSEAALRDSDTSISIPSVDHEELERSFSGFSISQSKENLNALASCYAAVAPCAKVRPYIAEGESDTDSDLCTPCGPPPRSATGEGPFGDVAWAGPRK

O=C(Nc1ccc(Cl)nc1)c1ccc(F)cc1
current ratio I/I0 [1]: 1
current ratio I/I0 ([2]; stronger effect = higher value): 0.9
deactivation tau ([2]; measured here: KCNQ2 deactivation time constant, stronger effect = higher value): 51.8 ms
V1/2 ([2]; measured here: KCNQ2 half activation voltage, stronger effect = lower value): -16.6 mV
current ratio I/I0 [3]: 2.4
current ratio I/I0 [4]: 3.5
current ratio I/I0 [5]: 1.9
